From patent publication US20220177510A1, “DERIVATIVES OF GYLCERO-MANNO-HEPTOSE ADP FOR USE IN MODULATING IMMUNE RESPONSE” (priority 2019, published 2022)
“Also recorded” adds a separate entry of the source.

Columns and labels:
ALPK1 [1] = target: T1, ALPK1 (Homo sapiens, UniProt Q96QP1); assay: NF-kB promoter driven alkaline phosphatase reporter in HEK293 cells (pNPP assay); format: cell-based; details: HEK293-NFkB-AP reporter cells treated 7 hours
T1 construct: endogenous in cells; host or cells: HEK293 (A1); HEK293 stably expressing an NF-kB-alkaline phosphatase reporter (A2)
Experimental: NF-kB activation was assayed using HEK293 cells stably expressing an NF-kB reporter construct comprising an NF-kB promoter driving expression of alkaline phosphatase (AP). In this system, activation of NF-kB promoter activity drives the expression of AP which is detected using a chromogenic substrate, para-nitrophenyl phosphate (pNPP).
To assess the ALPK1 agonist activity of test compounds, the HEK293 cells were seeded in 96-well plates and allowed to attach overnight. Cells were then exposed to graded concentrations of compounds A1, A2, A3, A4, A18, A26, A27, A28, and A30. Compound 28 was included as a reference. Following treatment, cell culture supernatants were collected and analyzed for alkaline phosphatase activity using the pNPP assay. The results are shown in FIGS. 7A-7B and Table 2B-C below. The EC50 for each compound was determined using GraphPad Prism.

ALPK1 [2] = target: T1, ALPK1; assay: IL-8 secretion by HEK293 cells (IL-8 ELISA) as indication of ALPK1 activation; format: cell-based; details: HEK293 cells treated 4 hours, FIG. 6, Table 2A
Experimental: HEK293 cells were treated with H1b-ADP derivatives (A1, A2, A3, and A4) or with Compound 28 for 4 hours followed by analysis of IL-8 secretion using an IL-8 enzyme linked immunoassay (ELISA). IL-8 secretion is an indication of ALPK1 activation. The EC50 of each compound was determined using GraphPad Prism.

HBsAg, adw = assay: Immunization of mice with HBsAg, adw with or without compound; specific total IgG serum titers by ELISA; format: in vivo, mouse
Experimental: Eight-week-old C57BL/6J mice (females) were intradermally (I.D.) immunized at day 0 with HBsAg, adw (1 mg/dose), or HBsAg, adw at 1 mg/dose combined with compound 28 (1 nmol/dose). Mice were boosted with a second immunization at day 14 and the sera collected at day 35. HBsAg, adw-specific total IgG serum titers (OD450) were determined by ELISA. Anti-HBsAg, adw IgG titers were more than 2× higher when HBsAg, adw was combined with 1 nmol/dose of compound 28 than when HBsAg, adw was injected alone (FIG. 3).

ALPK1 [3] = target: T2, ALPK1 (Mus musculus, UniProt Q9CXB8); assay: Serum RANTES (CCL5) levels after subcutaneous injection as measure of ALPK1 activation in vivo; details: 10 nmole subcutaneous, serum at 24 hours or 48 hours
T2 construct: C57/B6 mice (n=3 mice/group) were injected subcutaneously; endogenous in cells; host or cells: C57/B6 mice, whole animal
T2 sequence (Q9CXB8 1-1231): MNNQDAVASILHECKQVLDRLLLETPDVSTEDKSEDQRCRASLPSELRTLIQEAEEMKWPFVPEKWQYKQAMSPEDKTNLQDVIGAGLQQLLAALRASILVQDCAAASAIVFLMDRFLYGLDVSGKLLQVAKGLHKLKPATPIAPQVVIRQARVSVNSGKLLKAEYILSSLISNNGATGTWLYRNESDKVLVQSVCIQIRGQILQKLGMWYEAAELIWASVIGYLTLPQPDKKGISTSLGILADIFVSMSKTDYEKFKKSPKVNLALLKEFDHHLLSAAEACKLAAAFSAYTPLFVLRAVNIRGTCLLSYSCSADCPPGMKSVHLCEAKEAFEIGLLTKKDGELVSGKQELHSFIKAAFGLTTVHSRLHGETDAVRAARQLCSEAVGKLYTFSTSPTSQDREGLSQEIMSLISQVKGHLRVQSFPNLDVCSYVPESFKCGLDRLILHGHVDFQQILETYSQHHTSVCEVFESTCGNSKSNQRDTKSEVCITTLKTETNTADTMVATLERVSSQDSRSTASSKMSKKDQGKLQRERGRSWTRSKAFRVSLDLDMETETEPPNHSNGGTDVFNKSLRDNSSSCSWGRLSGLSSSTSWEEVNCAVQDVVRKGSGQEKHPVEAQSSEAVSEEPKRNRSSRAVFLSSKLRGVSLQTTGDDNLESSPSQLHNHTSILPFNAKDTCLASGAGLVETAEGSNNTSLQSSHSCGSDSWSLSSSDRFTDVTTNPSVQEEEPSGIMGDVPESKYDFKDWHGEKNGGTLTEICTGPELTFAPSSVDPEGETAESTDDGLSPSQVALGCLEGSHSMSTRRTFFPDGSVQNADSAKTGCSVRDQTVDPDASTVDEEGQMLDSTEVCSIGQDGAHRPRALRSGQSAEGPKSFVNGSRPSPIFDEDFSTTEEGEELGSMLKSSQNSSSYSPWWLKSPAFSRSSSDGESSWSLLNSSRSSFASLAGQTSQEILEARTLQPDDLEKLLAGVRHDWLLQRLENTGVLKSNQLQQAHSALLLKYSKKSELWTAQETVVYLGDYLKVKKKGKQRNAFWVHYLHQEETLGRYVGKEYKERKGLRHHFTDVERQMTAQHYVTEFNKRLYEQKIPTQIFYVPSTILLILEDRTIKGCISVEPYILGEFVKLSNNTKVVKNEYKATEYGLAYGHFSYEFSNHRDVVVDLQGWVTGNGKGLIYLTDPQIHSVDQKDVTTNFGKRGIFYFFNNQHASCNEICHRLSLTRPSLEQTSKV
Experimental: The ability of Compounds 15 and 28 to stimulate ALPK1 activation in vivo was tested by monitoring serum levels of the chemokine RANTES (CCL5), which is elevated upon activation of ALPK1. Briefly, C57/B6 mice (n=3 mice/group) were injected subcutaneously with PBS (negative control) or 10 nmole of Compound 15 or Compound 28. Serum was collected at 24 hours or 48 hours post injection.

HBV = assay: HBV-AAV mouse model: HBV DNA qPCR, serum HBsAg and HBeAg ELISA; format: in vivo; details: 0.1 mg/kg intraperitoneal on days 28 and 31, serum at day 35, versus PBS control
Experimental: Administration of Compound 28 (0.1 mg/kg, twice weekly “BIW”) led to downregulation of HBV DNA expression and a decrease in serum levels of HBsAg, and HBeAg in the HBV-AAV mouse model. At day 1, male C57BL/6 mice were intravenously injected with AAV8-1.3HBV (1×10^11 v/g). After days 28 and 31, each mouse was then intraperitoneally injected with 0.1 mg/kg compound 28 or PBS control. At day 35, mouse serum was collected for HBV DNA qPCR analysis, HBsAg and HBeAg serum analysis by ELISA.

[4] = system: eosinophils, dendritic cells, neutrophils; assay: Porcine pancreas elastase (PPE) induced immune cells in bronchoalveolar lavage, flow cytometry; format: in vivo, mouse; details: 30 μg/dose PPE, BAL day 2
Experimental: Eight-week-old male C57BL/6 mice were grouped (N=8/group) and were intraperitoneally (I.P.) injected with compound 28 at 0, 4, or 20 nmol/dose on days −1, 0, and 1. In addition, mice were intratracheally (I.Tr.) administrated with 0 or 30 μg/dose of porcine pancreas elastase (PPE) dissolved in 50 μL saline on day 0. Mice were sacrificed on day 2 and the immune cells were collected by bronchoalveolar lavage (BAL). Cells were then subjected to fluorophore-conjugated antibody staining and analyzed by flow cytometry. Data were processed with a FlowJo […] (Treestar). Immune cells were gated as singlets>live cells>CD11c^highSiglecF^lowMHCII^high (dendritic cells), CD11c^lowCD11b^highLy-6G^high (neutrophils), and CD11c^lowCD11b^highLy-6G^lowSiglecF^high (eosinophils).

[5] = 4 nmol/dose intraperitoneal days -1, 0, 1
[6] = 4 nmol/dose intraperitoneal days -1, 0, 1, listed as compound 28
[7] = 20 nmol/dose intraperitoneal days -1, 0, 1
[8] = 20 nmol/dose intraperitoneal days -1, 0, 1, listed as compound 28

T1 sequence (Q96QP1 whole entry): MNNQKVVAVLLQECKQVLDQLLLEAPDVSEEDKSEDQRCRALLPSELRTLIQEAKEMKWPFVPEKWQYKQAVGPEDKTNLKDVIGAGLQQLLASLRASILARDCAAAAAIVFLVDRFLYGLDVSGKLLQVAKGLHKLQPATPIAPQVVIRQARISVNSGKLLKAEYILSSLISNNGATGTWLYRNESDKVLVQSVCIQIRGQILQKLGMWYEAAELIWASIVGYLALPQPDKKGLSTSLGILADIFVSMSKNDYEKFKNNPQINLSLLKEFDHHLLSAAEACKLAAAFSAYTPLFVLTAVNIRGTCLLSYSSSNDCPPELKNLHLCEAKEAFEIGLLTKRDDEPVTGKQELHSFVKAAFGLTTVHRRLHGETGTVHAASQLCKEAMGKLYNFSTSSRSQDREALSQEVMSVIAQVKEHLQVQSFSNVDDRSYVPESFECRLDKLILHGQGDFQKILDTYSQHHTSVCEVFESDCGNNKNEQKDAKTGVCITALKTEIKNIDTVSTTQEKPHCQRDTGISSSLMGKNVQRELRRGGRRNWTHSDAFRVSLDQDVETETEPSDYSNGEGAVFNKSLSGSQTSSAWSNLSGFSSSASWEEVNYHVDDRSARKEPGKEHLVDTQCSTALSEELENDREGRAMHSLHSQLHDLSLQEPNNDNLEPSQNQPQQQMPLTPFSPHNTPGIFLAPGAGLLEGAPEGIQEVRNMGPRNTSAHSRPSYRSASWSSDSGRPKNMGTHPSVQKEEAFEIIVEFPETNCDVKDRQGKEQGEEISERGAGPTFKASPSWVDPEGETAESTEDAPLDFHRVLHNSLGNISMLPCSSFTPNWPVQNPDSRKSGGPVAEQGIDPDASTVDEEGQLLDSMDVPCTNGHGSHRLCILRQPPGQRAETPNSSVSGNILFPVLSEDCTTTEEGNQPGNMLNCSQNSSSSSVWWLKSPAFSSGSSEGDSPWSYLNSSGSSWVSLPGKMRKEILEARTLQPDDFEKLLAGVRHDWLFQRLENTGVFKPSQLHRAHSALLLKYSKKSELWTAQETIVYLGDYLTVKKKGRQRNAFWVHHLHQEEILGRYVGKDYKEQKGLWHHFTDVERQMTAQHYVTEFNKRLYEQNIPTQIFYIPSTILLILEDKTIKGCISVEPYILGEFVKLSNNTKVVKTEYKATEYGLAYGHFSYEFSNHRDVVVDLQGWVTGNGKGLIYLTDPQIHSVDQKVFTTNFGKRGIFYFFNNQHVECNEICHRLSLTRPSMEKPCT

CC(=O)OC[C@H](F)C1O[C@@H](OP(=O)(O)OP(O)(=S)OC[C@H]2O[C@@H](n3cnc4c(N)ncnc43)C(O)C2O)C(OC(C)=O)C(OC(C)=O)[C@@H]1OC(C)=O (stereo partly drawn) [Compound 28]
EC50 (ALPK1 [1]; FIG. 7A, Table 2B): 45 nM | EC50 (ALPK1 [1]; FIG. 7B, Table 2C): 67 nM | EC50 (ALPK1 [2]): 45 nM | IgG response against HBsAg, adw (in words) (HBsAg, adw; 1 nmol with HBsAg, adw versus HBsAg, adw alone): increased IgG response | Anti-HBsAg, adw IgG titers, HBsAg, adw combined with compound relative to HBsAg, adw alone (HBsAg, adw; 1 nmol/dose intradermal, days 0 and 14, sera day 35): more than 2 × | duration of immune activation (serum RANTES), compared to Compound 15 (ALPK1 [3]): longer duration of immune activation | HBV DNA expression (HBV): marked decrease; also recorded: down-regulation | serum levels of HBeAg (HBV): marked decrease; also recorded: lower levels | serum levels of HBsAg (HBV): marked decrease; also recorded: lower levels | production of dendritic cells after PPE administration [4, 5]: decrease | production of eosinophils after PPE administration [4, 5]: decrease | production of neutrophils after PPE administration [4, 5]: decrease | production of dendritic cells after PPE administration [4, 6]: significantly suppressed | production of eosinophils after PPE administration [4, 6]: significantly suppressed | production of neutrophils after PPE administration [4, 6]: only at the 20 nmol/dose level | production of dendritic cells after PPE administration [4, 7]: decrease | production of eosinophils after PPE administration [4, 7]: decrease | production of neutrophils after PPE administration [4, 7]: decrease | production of dendritic cells after PPE administration [4, 8]: significantly suppressed | production of eosinophils after PPE administration [4, 8]: significantly suppressed | production of neutrophils after PPE administration [4, 8]: suppressed
